Data on four sequences can be found in patent US11000560B2, “Oncolytic adenoviruses with mutations in immunodominant adenovirus epitopes and their use in cancer treatment” (VCN B[…], priority 2015, dated 2021).

In this assay the test system is human HLA-A2.1. The assay can be described thus: HLA-A2.1 stabilization assay (RMA-S A2 cells). It is filed as binding. The conditions noted are these: for reduction of HLA-A2 binding compared to unmodified counterpart: from Kd values; for HLA-A2 binding compared to unmodified counterpart: peptide 300 to 0.1 μM. On the procedure: An HLA-A2.1 stabilization assay was used, with minor modifications from Takiguchi et al. (Takiguchi, M., Tissue Antigens. 2000 April; 55(4):296-302) (incorporated by reference herein in its entirety), to evaluate the binding affinity of mutated peptides. Murine cells expressing HLA-A2.1 (RMA-S A2 cells) were incubated for 18 h at 26° C. in order to allow for HLA-A2 surface expression in the absence of any peptide. Peptides were serially diluted 1:3 in a 96-well plate with a U shape bottom, starting with 300 μM up to 0.1 μM in 100 μl volume. 2.5e5 RMA-S A2 cells were added to each well in 100 μl volume. The mixture was incubated for 2 hours at 26° C. and then at 37° C. for 2 hours to allow unbound HLA-A2.1 to be internalized. Cells were spun for 3 minutes at 500 g and washed three times with PBS, FBS 5%, BSA 0.5%. Cells were incubated with 100 μl of the supernatant of hybridoma anti-HLA-A2.1 (PA2.1) and incubated for 30 minutes at 4° C. Cells were washed three times and then incubated with Alexa Fluor® 488 goat anti-mouse IgG (Molecular Probes®) at 1:500 dilution for 30 minutes at 4° C. Cells were washed three times and then analyzed with Gallios flow cytometer (Beckman Coulter). As a negative control, RMA-S A2 cells were incubated with a peptide having no affinity to HLA-A2.1 under the same experimental conditions. The fluorescence index was calculated using the formula: Fluorescein Index=(sample fluorescence−negative control fluorescence)/negative control fluorescence.
Using GraphPad Prism v5, Kd values were analyzed using a non-linear regression. A Kd value was obtained for each peptide that represents the binding constant in equilibrium with half of the maximum possible binding.

In the case of YVLFEVFDK [V925K], the “reduction of HLA-A2 binding compared to unmodified counterpart” value is approximately 600 times.

Regarding GLVDCYINP [L520P], the “reduction of HLA-A2 binding compared to unmodified counterpart” value is reported as “more than 10 times”.

Take YLNHTFKKA [V721A]: the “HLA-A2 binding compared to unmodified counterpart” value is on record as “maintained the same level of binding”.

Regarding LLYANSAHS [A900S], the “HLA-A2 binding compared to unmodified counterpart” value is “maintained the same level of binding”.
